Assay results published in patent publication US20230111310A1, “CARBOXYLIC ACID DERIVATIVE-SUBSTITUTED IMINO ARYL COMPOUND, PREPARATION METHOD THEREFOR, HERBICIDAL COMPOSITION AND USE THEREOF” (Qingdao Kingagroot Chemical Compound Co., Ltd., priority 2020, published 2023).

Columns and labels:
Experiment in all cases: Weeding effect in post-emergence stage
Assay type in all cases: in vivo
Abutilon theophrasti = conditions: for Weeding effect in post-emergence stage, Abutilon theophrasti: level of fresh weight growth control rate; for Weeding effect in post-emergence stage, Abutilon theophrasti (level): fresh weight control rate level
Summary of the method: (§1)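 Post-emergence spray tower; 2-3 leaf plants (2 wk after sowing, soil pots, greenhouse). Formulation: acetone, Tween 80, methyl oleate EC 1.5 liter/ha as synergist, water. Rates 500–7.5 g/ha. Growth control rate read at 3 wk; n=3, averaged.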

Eleusine indica = conditions: for Weeding effect in post-emergence stage, Eleusine indica: level of fresh weight growth control rate; for Weeding effect in post-emergence stage, Eleusine indica (level): fresh weight control rate level
Summary of the method: as §1

Digitaria sanguinalis = conditions: for Weeding effect in post-emergence stage, Digitaria sanguinalis: level of fresh weight growth control rate; for Weeding effect in post-emergence stage, Digitaria sanguinalis (level): fresh weight control rate level
Summary of the method: as §1

Setaria viridis = conditions: for Weeding effect in post-emergence stage, Setaria viridis: level of fresh weight growth control rate; for Weeding effect in post-emergence stage, Setaria viridis (level): fresh weight control rate level
Summary of the method: as §1

Alopecurus japonicus = conditions: for Weeding effect in post-emergence stage, Alopecurus japonicus: level of fresh weight growth control rate; for Weeding effect in post-emergence stage, Alopecurus japonicus (level): fresh weight control rate level
Summary of the method: as §1

Echinochloa crusgalli = conditions: for Weeding effect in post-emergence stage, Echinochloa crusgalli: level of fresh weight growth control rate; for Weeding effect in post-emergence stage, Echinochloa crusgalli (level): fresh weight control rate level
Summary of the method: as §1

SMILES	Weeding effect in post-emergence stage, Abutilon theophrasti (Abutilon theophrasti; Dose 15 g/ha)	Weeding effect in post-emergence stage, Eleusine indica (Eleusine indica; Dose 15 g/ha)	Weeding effect in post-emergence stage, Digitaria sanguinalis (Digitaria sanguinalis; Dose 15 g/ha)	Weeding effect in post-emergence stage, Setaria viridis (Setaria viridis; Dose 15 g/ha)	Weeding effect in post-emergence stage, Alopecurus japonicus (Alopecurus japonicus; Dose 15 g/ha)	Weeding effect in post-emergence stage, Echinochloa crusgalli (Echinochloa crusgalli; Dose 15 g/ha)	also measured
CC(C)COC(=O)[C@@H](C)O/N=C/c1cc(-n2c(=O)cc(C(F)(F)F)n(C)c2=O)c(F)cc1Cl [201(R)]	5 (Level 5: growth control rate is above 85%)	5 (Level 5: growth control rate is above 85%)	5 (Level 5: growth control rate is above 85%)	5 (Level 5: growth control rate is above 85%)	5 (Level 5: growth control rate is above 85%)	5 (Level 5: growth control rate is above 85%)	
CCOCCOC(=O)C(C)O/N=C/c1cc(-n2c(=O)cc(C(F)(F)F)n(C)c2=O)c(F)cc1Cl (stereo not drawn) [Compound 231]	5 (Level 5: growth control rate is above 85%)	5 (Level 5: growth control rate is above 85%)	5 (Level 5: growth control rate is above 85%)	5 (Level 5: growth control rate is above 85%)	5 (Level 5: growth control rate is above 85%)	5 (Level 5: growth control rate is above 85%)	
CCOC(=O)[C@@H](C)O/N=C/c1cc(-n2c(=O)n(C)c(=S)n(C)c2=O)c(F)cc1C#N [88(R)]	5 (Level 5: growth control rate is above 85%)	5 (Level 5: growth control rate is above 85%)	5 (Level 5: growth control rate is above 85%)	5 (Level 5: growth control rate is above 85%)	5 (Level 5: growth control rate is above 85%)	5 (Level 5: growth control rate is above 85%)	
C[C@@H](O/N=C/c1cc(-n2c(=O)cc(C(F)(F)F)n(C)c2=O)c(F)cc1Cl)C(=O)ON1C(=O)CCC1=O [263(R)]							Weeding effect in post-emergence stage, Abutilon theophrasti (Abutilon theophrasti; Dose 60 g/ha): 5 (Level 5: growth control rate is above 85%); Weeding effect in post-emergence stage, Eleusine indica (Eleusine indica; Dose 60 g/ha): 5 (Level 5: growth control rate is above 85%); Weeding effect in post-emergence stage, Digitaria sanguinalis (Digitaria sanguinalis; Dose 60 g/ha): 5 (Level 5: growth control rate is above 85%); Weeding effect in post-emergence stage, Setaria viridis (Setaria viridis; Dose 60 g/ha): 5 (Level 5: growth control rate is above 85%); Weeding effect in post-emergence stage, Alopecurus japonicus (Alopecurus japonicus; Dose 60 g/ha): 5 (Level 5: growth control rate is above 85%); Weeding effect in post-emergence stage, Echinochloa crusgalli (Echinochloa crusgalli; Dose 60 g/ha): 5 (Level 5: growth control rate is above 85%)
CCCOC(=O)C(C)O/N=C/c1cc(-n2c(=O)n(C)c(=S)n(C)c2=O)c(F)cc1Cl (racemic) [Compound 4]	5 (Level 5: growth control rate is above 85%)	5 (Level 5: growth control rate is above 85%)	5 (Level 5: growth control rate is above 85%)	5 (Level 5: growth control rate is above 85%)	5 (Level 5: growth control rate is above 85%)	5 (Level 5: growth control rate is above 85%)	
CCOC(=O)C(CC(F)(F)F)O/N=C/c1cc(-n2c(=O)cc(C(F)(F)F)n(C)c2=O)c(F)cc1Cl (stereo not drawn) [Compound 486]							Weeding effect in post-emergence stage, Abutilon theophrasti (level) (Abutilon theophrasti; Dose 15 g/ha): 5 (Level 5: growth control rate is above 85%); Weeding effect in post-emergence stage, Eleusine indica (level) (Eleusine indica; Dose 15 g/ha): 5 (Level 5: growth control rate is above 85%); Weeding effect in post-emergence stage, Digitaria sanguinalis (level) (Digitaria sanguinalis; Dose 15 g/ha): 5 (Level 5: growth control rate is above 85%); Weeding effect in post-emergence stage, Setaria viridis (level) (Setaria viridis; Dose 15 g/ha): 5 (Level 5: growth control rate is above 85%); Weeding effect in post-emergence stage, Alopecurus japonicus (level) (Alopecurus japonicus; Dose 15 g/ha): 5 (Level 5: growth control rate is above 85%); Weeding effect in post-emergence stage, Echinochloa crusgalli (level) (Echinochloa crusgalli; Dose 15 g/ha): 5 (Level 5: growth control rate is above 85%)
COC(=O)CCNC(=O)[C@@H](C)O/N=C/c1cc(-n2c(=O)n(C)c(=S)n(C)c2=O)c(F)cc1Cl [183(R)]	5 (Level 5: growth control rate is above 85%)	5 (Level 5: growth control rate is above 85%)	5 (Level 5: growth control rate is above 85%)	5 (Level 5: growth control rate is above 85%)	5 (Level 5: growth control rate is above 85%)	5 (Level 5: growth control rate is above 85%)	
COC(=O)C(C)O/N=C/c1cc(-n2c(=O)cc(C(F)(F)F)n(C)c2=S)c(F)cc1C#N (racemic) [Compound 396]							Weeding effect in post-emergence stage, Abutilon theophrasti (level) (Abutilon theophrasti; Dose 60 g/ha): 5 (Level 5: growth control rate is above 85%); Weeding effect in post-emergence stage, Eleusine indica (level) (Eleusine indica; Dose 60 g/ha): 5 (Level 5: growth control rate is above 85%); Weeding effect in post-emergence stage, Digitaria sanguinalis (level) (Digitaria sanguinalis; Dose 60 g/ha): 5 (Level 5: growth control rate is above 85%); Weeding effect in post-emergence stage, Setaria viridis (level) (Setaria viridis; Dose 60 g/ha): 5 (Level 5: growth control rate is above 85%); Weeding effect in post-emergence stage, Alopecurus japonicus (level) (Alopecurus japonicus; Dose 60 g/ha): 5 (Level 5: growth control rate is above 85%); Weeding effect in post-emergence stage, Echinochloa crusgalli (level) (Echinochloa crusgalli; Dose 60 g/ha): 5 (Level 5: growth control rate is above 85%)
COC(=O)C(C)O/N=C/c1cc(-n2c(=S)cc(C(F)(F)F)n(C)c2=S)c(F)cc1Br (racemic) [Compound 391]							Weeding effect in post-emergence stage, Abutilon theophrasti (level) (Abutilon theophrasti; Dose 60 g/ha): 5 (Level 5: growth control rate is above 85%); Weeding effect in post-emergence stage, Eleusine indica (level) (Eleusine indica; Dose 60 g/ha): 5 (Level 5: growth control rate is above 85%); Weeding effect in post-emergence stage, Digitaria sanguinalis (level) (Digitaria sanguinalis; Dose 60 g/ha): 5 (Level 5: growth control rate is above 85%); Weeding effect in post-emergence stage, Setaria viridis (level) (Setaria viridis; Dose 60 g/ha): 5 (Level 5: growth control rate is above 85%); Weeding effect in post-emergence stage, Alopecurus japonicus (level) (Alopecurus japonicus; Dose 60 g/ha): 5 (Level 5: growth control rate is above 85%); Weeding effect in post-emergence stage, Echinochloa crusgalli (level) (Echinochloa crusgalli; Dose 60 g/ha): 5 (Level 5: growth control rate is above 85%)
C[C@@H](O/N=C/c1cc(-n2c(=O)cc(C(F)(F)F)n(C)c2=O)c(F)cc1Cl)C(=O)OCCC1OCCO1 [498(R)]							Weeding effect in post-emergence stage, Abutilon theophrasti (level) (Abutilon theophrasti; Dose 15 g/ha): 5 (Level 5: growth control rate is above 85%); Weeding effect in post-emergence stage, Eleusine indica (level) (Eleusine indica; Dose 15 g/ha): 5 (Level 5: growth control rate is above 85%); Weeding effect in post-emergence stage, Digitaria sanguinalis (level) (Digitaria sanguinalis; Dose 15 g/ha): 5 (Level 5: growth control rate is above 85%); Weeding effect in post-emergence stage, Setaria viridis (level) (Setaria viridis; Dose 15 g/ha): 5 (Level 5: growth control rate is above 85%); Weeding effect in post-emergence stage, Alopecurus japonicus (level) (Alopecurus japonicus; Dose 15 g/ha): 5 (Level 5: growth control rate is above 85%); Weeding effect in post-emergence stage, Echinochloa crusgalli (level) (Echinochloa crusgalli; Dose 15 g/ha): 5 (Level 5: growth control rate is above 85%)
CCOC(=O)[C@@H](F)O/N=C/c1cc(-n2c(=O)cc(C(F)(F)F)n(C)c2=O)c(F)cc1Cl [313(R)]	5 (Level 5: growth control rate is above 85%)	5 (Level 5: growth control rate is above 85%)	5 (Level 5: growth control rate is above 85%)	5 (Level 5: growth control rate is above 85%)	5 (Level 5: growth control rate is above 85%)	5 (Level 5: growth control rate is above 85%)	
C[C@@H](O/N=C/c1cc(-n2c(=O)cc(C(F)(F)F)n(C)c2=O)c(F)cc1Cl)C(=O)OCc1ccc(F)cc1 [286(R)]							Weeding effect in post-emergence stage, Abutilon theophrasti (Abutilon theophrasti; Dose 30 g/ha): 5 (Level 5: growth control rate is above 85%); Weeding effect in post-emergence stage, Eleusine indica (Eleusine indica; Dose 30 g/ha): 5 (Level 5: growth control rate is above 85%); Weeding effect in post-emergence stage, Digitaria sanguinalis (Digitaria sanguinalis; Dose 30 g/ha): 5 (Level 5: growth control rate is above 85%); Weeding effect in post-emergence stage, Setaria viridis (Setaria viridis; Dose 30 g/ha): 5 (Level 5: growth control rate is above 85%); Weeding effect in post-emergence stage, Alopecurus japonicus (Alopecurus japonicus; Dose 30 g/ha): 5 (Level 5: growth control rate is above 85%); Weeding effect in post-emergence stage, Echinochloa crusgalli (Echinochloa crusgalli; Dose 30 g/ha): 5 (Level 5: growth control rate is above 85%)
COC(=O)[C@@H](C)O/N=C/c1cc(-n2c(=O)n(C)c(=S)n(C)c2=O)c(F)cc1Br [83(R)]	5 (Level 5: growth control rate is above 85%)	5 (Level 5: growth control rate is above 85%)	4 (Level 4: growth control rate is greater than or equal to 60% and less than 85%)	5 (Level 5: growth control rate is above 85%)	4 (Level 4: growth control rate is greater than or equal to 60% and less than 85%)	5 (Level 5: growth control rate is above 85%)	
